Among the data in a melting point compilation (Tetko et al.; mined from patent text by program, amines drawn as free bases though some values may be those of a salt) are melting point values, retold here.

Consider `Nc1cccc(C(=O)c2ccc(Oc3ccccc3)c(N)c2)c1`, for which the melting point (commonly the temperature of the solid-liquid transition) fell in the range of 112 to 113 °C.

In turn, `Cc1cnc(N)c(S(N)(=O)=O)c1` displayed a melting point of 187 to 189 °C.

As for `Cc1cccc(C)c1Sc1nc[nH]n1`, the melting point lay in the range of 126 to 127 °C.

Consider `Cc1ccc(-c2ccc3c(c2)C=C(C(=O)Nc2ccc(CN(C)C4CCOCC4)cc2)CO3)cc1`, for which the melting point is 143 to 145 °C.

`Cn1cnc(N2CCc3ccccc3CC2)c(C#N)c1=O` gave a melting point of 197 to 203 °C.

In turn, `COCC(=O)OC(CC1CC1)c1ccc(Cl)c2nc3n(c12)CCCN3c1ccc(Cl)cc1Cl` (configuration not stated) came in with a melting point of 159 to 161 °C.

As for `O=C(c1ccccc1)N1CCc2cc(Cl)ccc21`, the melting point was in the range of 135 to 136 °C.

For `O=C(O)C=Cc1ccc(CCNS(=O)(=O)c2ccc(Cl)cc2)cc1`, the melting point was 85 to 86 °C.

Compound `Cc1ccc(S(=O)(=O)ON=C(c2cccc([N+](=O)[O-])c2)n2nc(C)cc2N)cc1` yielded a melting point of 156 to 158 °C.

The compound `COP(=O)(CC(O)c1c(C(C)C)nn(-c2ccccc2)c1-c1ccc(F)cc1)OC` (configuration not stated) gave a melting point of 126 to 128 °C.

Regarding `O=C1NC(=S)NC(=O)C1=Cc1ccc([N+](=O)[O-])s1`, the melting point came out at 285 °C.

Consider `CCN1C(=O)CCCc2cc(Nc3ncc(Cl)c(Nc4ccccc4-n4cccn4)n3)c(OC)cc21`, for which the melting point fell in the range of 82 to 85 °C.

The compound `COc1c(C)c(C(=O)c2ccc([N+](=O)[O-])cc2)n2ccccc12` showed a melting point of 151 °C.

As for `Cc1[nH]c(=O)ccc1C(=O)c1ccc([N+](=O)[O-])cc1`, the melting point was 282 to 284 °C.

Consider `CC1CC(=O)NN=C1c1ccc(Nc2ccccc2)nc1` (configuration not stated), for which the melting point was 202 to 204 °C.

Turning to `CCCCC(CC)COc1ccc(N2C(C)=CC(=C=C3C(C#N)C(=C(C#N)C#N)OC3(C)C)C=C2C)cc1` (configuration not stated), the melting point is 237 °C.

`C=C(OCCc1nc(C(C)C)c(Sc2cc(Cl)cc(Cl)c2)n1C)C12CC3CC(CC(C3)C1)C2` returned a melting point of 114 to 116 °C.

On to `CC(NC(=O)OC(C)(C)C)c1ccc(NS(C)(=O)=O)c(C#Cc2ccccc2)c1` (configuration not stated), for which the melting point is 157 to 158 °C.

In turn, `C[C@@H]1N=C(c2ccccc2)c2cc(NC(=O)CCCCCCC(=O)O)ccc2N(C)C1=O` came in with a melting point of 87 to 88 °C.

`CN(C)c1ncnc2c(O)cccc12`: the melting point was 104 to 105 °C.

Regarding `Nc1cc(O)c(C(=O)O)cc1Cl`, the melting point turned out to be 192 °C.

The compound `Cc1oc(-c2ccccc2)nc1COc1ccc(CC2SC(=O)NC2=O)cc1` (configuration not stated) registered a melting point of 162 to 163 °C.

The compound `COc1cccc2c1nc(C(F)F)n2-c1nc(Nc2ccc(F)nc2)nc(N2CCOCC2)n1` showed a melting point of 261 to 263 °C.

`CCCc1c(OCCCOc2cc(O)c(-c3ccc(F)cc3)cc2CC)cccc1Oc1cc(F)ccc1C(=O)O` showed a melting point of 62 to 64 °C.

Regarding `CCOC(=O)c1cc2cc(CCNS(=O)(=O)c3ccc(Cl)cc3)ccc2o1`, the melting point fell in the range of 123 to 125 °C.

`O=c1cc(-c2ccc(OCCO)cc2)oc2ncccc12`: the melting point was in the range of 157 to 159 °C.

With `COc1ccc(-c2cc(Cl)c3ccccc3n2)cc1Cl`, the melting point is 113 to 116 °C.

The compound `O=C(NCc1cccnc1)c1ccc2n1Cc1ccccc1N(C(=O)c1ccc(-c3ccccc3Cc3nnn[nH]3)cc1)C2` showed a melting point of 164 to 167 °C.

Regarding `CC(=O)Nc1ccc(-c2ccnc3c(C(=O)c4ccccc4)cnn23)cc1`, the melting point lay in the range of 229 to 231 °C.

With `O=S(CCCCCOc1ccc(C2=C(c3ccc(O)cc3)CCCc3cc(O)ccc32)cc1)CCCC(F)(F)C(F)(F)F` (configuration not stated), the melting point fell in the range of 165 to 168 °C.

`CCOC(=O)C(=O)Nc1ccc2c(c1)-c1c(c(C(=O)C(C#N)C(=O)Nc3ccccc3)nn1-c1ccccc1)CS2` (configuration not stated): the melting point was 273 to 277 °C.

In turn, `O=C1OCC(c2ccccc2)N1CC1C2CCC(O2)C1CO` (configuration not stated) yielded a melting point of 131 to 133 °C.

`COC(=O)Cn1cccc(O)c1=O`: the melting point fell in the range of 141 to 142 °C.

`CC(C)(C)NC(=O)[C@@H]1CCCN1C(=O)[C@@H](O)[C@H](Cc1ccccc1)NC(=O)[C@H](CC(N)=O)NC(=O)OC(C)(C)C` yielded a melting point of 113 to 115 °C.

Compound `CS(=O)(=O)N1CCC(NC(=O)Nc2cccc(C(F)(F)F)c2)CC1` displayed a melting point of 226 to 229 °C.

In the case of `CN(O)C(=O)N1CCC(C(c2ccccc2)c2ccccc2)CC1`, the melting point is 143 to 144 °C.

In the case of `CC1(CO)Cc2nnc(-c3ccc(-c4ccc(F)cc4)cc3C(F)(F)F)n2CCS1` (configuration not stated), the melting point is 202 to 204 °C.

The compound `C[C@@H]1C[C@](C)(O)[C@H](C)N1c1ccc(C#N)c(F)c1` registered a melting point of 125 to 128 °C.

Take `CC(=O)N1CCc2cc(S(=O)(=O)n3c(CCC(=O)O)cc4cc(C(F)(F)F)ccc43)ccc21`: the melting point was in the range of 205 to 207 °C.

The compound `Nc1nc2ccccc2c2c1ncn2CCOCC#Cc1cccs1` gave a melting point of 148 to 150 °C.

Compound `Cc1nc(N2CCN(Cc3ccc(OC(F)(F)F)cc3)C2=O)sc1C(=O)NCC1CC1` came in with a melting point of 184 to 186 °C.

Compound `CC(=O)c1ccnnc1` came in with a melting point of 66.5 to 67.5 °C.

On to `S=C1Nc2ccccc2N2CCN(c3ccccc3)CCN12`, for which the melting point is 202 to 206 °C.

In turn, `CS(=O)c1cc(=O)c2ccc(N3CCOCC3)cc2s1` (configuration not stated) returned a melting point of 198 to 200 °C.

Compound `CC12C=CCC1C1CCC3=CC(=O)CCC3=C1CC2` (configuration not stated) returned a melting point of 87 to 92 °C.

Compound `Cc1cc2cc(C#N)c(Cl)nc2cc1C` gave a melting point of 189 to 190 °C.

`CCN(CC)CCNC(=NC#N)NCCCSc1nccc(NC(N)=NCC(F)(F)F)n1` returned a melting point of 76 to 80 °C.

In turn, `O=C1CCCN1c1c([N+](=O)[O-])cc(C(F)(F)F)c(Cl)c1[N+](=O)[O-]` registered a melting point of 121 to 122 °C.

As for `Cc1nc(N2CCN(c3ccccc3)C2=O)sc1C(=O)O`, the melting point is 286 to 289 °C.

Regarding `CCCCC(=O)Nc1cccc([N+](=O)[O-])c1`, the melting point amounted to 65 °C.

As to `CCCCCS(=O)(=O)NC(=O)/C=C/c1ccc(OCCOC(C)=O)cc1Oc1ncc(C(F)(F)F)cc1Cl`, the melting point fell in the range of 141 to 144 °C.

Consider `NC1=C(N)C(=O)C(N)=C(N)C1=O`, for which the melting point lay in the range of 260 to 262 °C.

`COc1ccc(CNc2n[nH]c3ncnc(Nc4cccc(Cl)c4)c23)c(OC)c1OC` yielded a melting point of 168 to 169 °C.

On to `CC(C)(C)OC(=O)NCCCN1CCC(CCCCNC(N)=NC(=O)c2nc(Cl)c(N)nc2N)CC1`, for which the melting point fell in the range of 98 to 102 °C.

`CCOC(=O)c1[nH]c2cc(Cl)c(Cl)cc2c1-c1ccccc1` came in with a melting point of 201 to 202 °C.

`Clc1cc(Oc2cc(Cl)nc(-c3ccc(Cl)s3)n2)ccn1` had a melting point of 154 to 156 °C.

On to `CC12C=CCC1C1CCC3CCCCC3C1CC2` (configuration not stated), for which the melting point lay in the range of 165 to 166 °C.

In turn, `Cc1cccc(-c2nc(O)cc(-c3ccccc3Cl)n2)n1` gave a melting point of 196 °C.

With `COc1ccc2cc([C@H](C)C(=O)OC[C@](C)(O)CO)ccc2c1`, the melting point lay in the range of 65 to 66 °C.

`O=S1(=O)CCC(c2ccccc2)(c2ccccc2)[C@@H]2CN(Cc3ccccc3)C[C@@H]21` (racemic): the melting point came out at 186 °C.

Take `Cc1cn(-c2cc(N)cc(C(F)(F)F)c2)cn1`: the melting point was 123 to 124 °C.

The compound `CCN(CC)C(=O)n1cc(Br)c(S(=O)(=O)c2cc(C)ccc2C)n1` yielded a melting point of 83 to 84 °C.

`Cc1nc(N2CCCC(NCC3CC3)C2=O)sc1C(=O)NCc1ccccc1` (configuration not stated) had a melting point of 125 to 126 °C.

In turn, `CC(=O)NC[C@H]1CN(c2ccc(N3CCC(O)(CO)CC3)c(F)c2)C(=O)O1` returned a melting point of 98 to 100 °C.

The compound `COc1nc(N2CCOCC2)c(Cl)nc1NS(=O)(=O)c1cccc(Cl)c1Cl` had a melting point of 150 to 151 °C.

`COCC(=O)Nc1ccc2c(c1)CCC2` yielded a melting point of 104 to 105 °C.

In the case of `O=c1ccc2cccc(Oc3cc(-c4ccc(C(F)(F)F)cc4)ncn3)c2[nH]1`, the melting point was 312 °C.

As for `CCOc1cc2ncc(C#N)c(NCc3ccc(F)c(F)c3)c2cc1OCC`, the melting point was in the range of 167 to 169 °C.

`Oc1ccc(C2COc3cc(O)ccc3C2c2ccc(OCCN3CCCC3)cc2)cc1` (configuration not stated) registered a melting point of 112 to 116 °C.

For the compound `CCOC(=O)CN(CCc1ccccc1)C(=O)[C@@H]1C[C@@H](SC(C)=O)CN1S(=O)(=O)c1ccc2ccccc2c1`, the melting point is 119 to 120 °C.

In turn, `CCOC(=O)C(=NO)c1cnsn1` returned a melting point of 60 to 66 °C.

In turn, `COc1ccc(NC2C=CC3=Nc4ccccc4SC3=C2)cc1` (configuration not stated) had a melting point of 135 to 136 °C.

As for `CCOC(=O)C(=Cc1cccc([N+](=O)[O-])c1)C(C)=O`, the melting point lay in the range of 103 to 106 °C.

Compound `CCOc1ccc(O)c(C(C)(C)C)c1` registered a melting point of 96 to 98 °C.

Regarding `CCOC(=O)c1nc(-c2cccnc2)[nH]c1N=NN(C)C`, the melting point turned out to be 125 °C.

As for `CC(NC(=O)C(O)c1cc(F)cc(F)c1)C(=O)Nc1ccc2c(c1)NC(=O)Cc1cccn1-2` (configuration not stated), the melting point lay within 239 to 240 °C.

Turning to `CCn1cc(C)c2cnc(NC(=O)c3ccc(C(C)(C)O)cc3)cc21`, the melting point lay in the range of 198 to 200 °C.

`Cc1ccc(/C=C/c2ccc3nc(C(=O)N[C@@H](Cc4ccc(OCc5ccccc5)cc4)C(=O)O)cn3c2)cc1` displayed a melting point of 266 to 267 °C.

The compound `COc1ccc(C#CCCN2CCOC2=O)cc1OC` gave a melting point of 78 to 79 °C.

Compound `Cc1cc2c(cc1-c1ccc(O)c(C=O)c1)C(C)(C)CCC2(C)C` returned a melting point of 138 to 139 °C.

For `O=C(O)C1=CCCN1C(=O)CCS`, the melting point lay within 94 to 96 °C.

As to `CCc1noc(NC(=O)N2CCN(c3ccnc(-c4cccc(F)c4F)n3)CC2)c1C`, the melting point fell in the range of 188 to 189 °C.

The compound `O=C(CCCN1CCCC1)NC(Cc1c[nH]c2ccccc12)C(=O)CCc1cc(C(F)(F)F)cc(C(F)(F)F)c1` (configuration not stated) displayed a melting point of 99 to 100 °C.

Take `Fc1ccc2[nH]cc(C3=CCN(CC4COc5ccc6c(c5O4)CCCO6)CC3)c2c1` (configuration not stated): the melting point lay within 205 to 206 °C.

Take `CC(C)c1[nH]n(-c2c(Cl)cc(Cl)cc2Cl)c2nc(Cc3ccc(C(=O)O)cc3)nc(=O)c1-2`: the melting point lay within 294 to 295 °C.

Compound `c1ccc(-c2cc3c(nn2)-c2ccccc2CN3)cc1` gave a melting point of 250 to 252 °C.

With `CCOCC(C)(C)COc1ccc(-c2ccc3c(c2)C=C(C(=O)Nc2ccc(CN(C)C4CCOCC4)cc2)CCS3(=O)=O)cc1`, the melting point fell in the range of 209 to 210 °C.
